{
  "source": "patent US10124033B2",
  "about": "“Peptides and methods of use” (BAXALTA INCORPORATED, priority 2014, dated 2018)",
  "key": {"[1]": {"molecular_target": "T1, Protein S (Homo sapiens, UniProt P07225)", "T1 sequence (P07225 41-676 limits assumed)": "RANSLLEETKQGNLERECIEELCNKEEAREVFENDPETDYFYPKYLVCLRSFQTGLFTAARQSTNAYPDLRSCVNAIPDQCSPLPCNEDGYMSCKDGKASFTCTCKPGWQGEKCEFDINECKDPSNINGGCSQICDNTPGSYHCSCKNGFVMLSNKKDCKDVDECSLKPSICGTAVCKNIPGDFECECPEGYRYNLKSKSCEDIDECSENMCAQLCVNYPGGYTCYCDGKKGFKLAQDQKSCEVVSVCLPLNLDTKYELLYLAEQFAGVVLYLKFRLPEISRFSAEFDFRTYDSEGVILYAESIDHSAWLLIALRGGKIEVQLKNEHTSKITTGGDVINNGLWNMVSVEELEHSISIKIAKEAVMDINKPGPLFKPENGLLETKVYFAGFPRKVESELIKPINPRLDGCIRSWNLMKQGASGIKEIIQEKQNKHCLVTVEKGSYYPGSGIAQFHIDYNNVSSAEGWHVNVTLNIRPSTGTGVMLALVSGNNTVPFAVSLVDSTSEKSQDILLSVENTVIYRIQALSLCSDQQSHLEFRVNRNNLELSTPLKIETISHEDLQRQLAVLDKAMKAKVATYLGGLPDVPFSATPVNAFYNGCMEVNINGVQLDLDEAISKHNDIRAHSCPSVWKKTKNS", "test": "competition (IC50) ELISA with biotinylated tracer peptide JBS0684", "type": "binding", "description": "The new peptide candidates were synthesized (purity >60%) and screened for affinity in a competitive binding assay (ELISA IC50) and activity in a thrombin generation assay (CAT). The competition (IC50) ELISA was performed using biotinylated tracer peptide JBS0684 to compete for Protein S-binding with candidate peptides. Peptides that compete with the tracer bind the same region of Protein S as the tracer (and each other). Ninety-six well PolySorp plates (Nunc) were coated with 3 μg/mL Protein S in coating buffer (15 mM Na2CO3, 35 mM NaHCO3, pH 9.6) over night. Plates were washed three times with wash buffer (HNaT: 175 mM NaCl, 25 mM HEPES, 5 mM CaCl2, 0.1% Tween 80, pH 7.35), and blocked with 100 μl 2% yeast extract in HNaT for at least 1 hour. Plates were then washed three times with HNaT. JBS0684 was applied at a concentration corresponding to the EC90 value determined in the binding ELISA. A competitor stock solution of peptide (10 mM) was diluted 1/33.3 in HNaT without HSA, and a serial ⅓ dilution was prepared with HNaT with 3% DMSO. The dilution was further diluted with the biotinylated tracer peptide in a ratio of 1:6 (20 μl competitor dilution and 100 μl tracer peptide). The mixture of competitor and tracer peptide was applied to the Protein S-coated microtiter plate and incubated for 1.5 hours. The plates were washed three times with HNaT. Peptide-Protein S binding was detected by applying HRP-conjugated streptavidin to the microtiter plate, incubating the mixture for one hour, washing the plate three times with HNaT, applying TMB (3,3′5,5′-Tetramethylbenzidin), and detecting the subsequent chromogenic conversion of TMB by HRP. IC50 measurements of peptides are provided herein (see, e.g., Table 3)."}, "[2]": {"molecular_target": "T2, human full-length Protein S (Homo sapiens, UniProt P07225)", "T2 construct": "using human full-length Protein S and human GAS6", "T2 sequence (P07225 41-676 limits assumed)": "T1 sequence (P07225 41-676 limits assumed)", "test": "Biacore (surface plasmon resonance) on immobilized Protein S", "type": "binding", "conditions": "for koff: read-out: koff; for kon: read-out: kon", "description": "(§1) Protein S affinity also was determined via Biacore (Biacore 3000 or Biacore T200) using human full-length Protein S and human GAS6. Briefly, 1000 RU of Protein S or GAS6 were immobilized on a CMS chip. In order to probe the kinetics of Protein S binding peptides to Protein S, the peptides were injected at various concentrations in a HBS-buffer containing 3 mM CaCl2 and 1% DMSO to the flow cell and allowed to interact with the immobilized proteins on the sensor chip. The chip could be regenerated with 4 M MgCl2 in HBS-buffer. Sensorgrams were fitted to a Langmuir binding model for the determination of kon and koff and the calculation of KD. Peptides were tested on their specificity to Protein S with peptide binding studies on the anti-target GAS6."}, "[3]": {"molecular_target": "T3, human GAS6 (Homo sapiens, UniProt Q14393)", "T3 sequence (Q14393 31-678)": "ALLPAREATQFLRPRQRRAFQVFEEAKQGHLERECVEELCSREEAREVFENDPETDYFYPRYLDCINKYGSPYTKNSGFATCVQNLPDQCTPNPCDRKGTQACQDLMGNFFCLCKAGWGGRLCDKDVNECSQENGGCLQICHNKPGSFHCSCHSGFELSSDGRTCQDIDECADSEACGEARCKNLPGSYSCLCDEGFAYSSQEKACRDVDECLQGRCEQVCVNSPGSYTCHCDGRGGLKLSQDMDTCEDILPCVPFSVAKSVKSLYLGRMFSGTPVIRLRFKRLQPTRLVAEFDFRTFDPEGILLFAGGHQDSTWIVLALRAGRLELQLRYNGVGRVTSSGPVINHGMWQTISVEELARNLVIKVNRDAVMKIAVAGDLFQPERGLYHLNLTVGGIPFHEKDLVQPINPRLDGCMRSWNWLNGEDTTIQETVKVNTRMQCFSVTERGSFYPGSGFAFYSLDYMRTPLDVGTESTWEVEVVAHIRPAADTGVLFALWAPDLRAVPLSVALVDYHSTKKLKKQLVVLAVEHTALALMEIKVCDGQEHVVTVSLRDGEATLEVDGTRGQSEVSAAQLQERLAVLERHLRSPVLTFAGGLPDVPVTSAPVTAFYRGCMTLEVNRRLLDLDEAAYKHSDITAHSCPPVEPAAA", "test": "Biacore binding to anti-target GAS6", "description": "as §1\nInteractions with the anti-target GAS6 were measured via Biacore (surface plasmon resonance) (see Example 2). The maximum signal from the interaction of the peptides with human GAS6 was much lower than the signals obtained with Protein S as interaction partner. Kinetic analysis of the low GAS6 binding signals was error prone, and sensorgrams were reviewed visually to estimate anti-target binding. […] The affinity of JBS2572 for the anti-target was at least 10 times less (indeed, at least 150 times less) than the affinity of the peptides for human Protein S. The data provided by this example confirm that peptides described herein specifically bind Protein S."}},
  "note": "Like-named read-outs stand apart in the source and are kept apart here. Residues, ends and D or L forms follow the SMILES beside them.",
  "data": [
    {"compound": "CC(=O)N[C@H](C(=O)NCC(=O)N[C@@H](CC(C)C)C(=O)N[C@H](C(=O)N[C@@H](CO)C(=O)N[C@@H](C)C(=O)NCC(=O)N[C@@H](Cc1c[nH]c2ccccc12)C(=O)N[C@@H](Cc1ccc(O)cc1)C(=O)N[C@@H](CC(=O)O)C(=O)N[C@@H](Cc1ccc(O)cc1)C(=O)N[C@@H](CC(N)=O)C(=O)N[C@@H](Cc1ccccc1)C(=O)N[C@@H](CC(=O)O)C(=O)N[C@@H](Cc1c[nH]cn1)C(=O)N[C@@H](Cc1ccc(O)cc1)C(=O)N[C@@H](CCCNC(=N)N)C(=O)N[C@@H](CCC(=O)O)C(=O)N[C@@H](Cc1ccccc1)C(=O)N[C@H](C(N)=O)[C@@H](C)O)C(C)C)[C@@H](C)O", "note": "[JBS2572] (Ac-TGLVSAGWYDYNFDHYREFT-NH2)", "values": [
      {"measurement": "increase of affinity compared to JBS2512", "setting": "[1]; His to Leu substitution at position 3", "value": 1.6, "unit": "fold"},
      {"measurement": "IC50", "setting": "[1]; competition ELISA, tracer JBS0684, re-synthesized peptides", "value": "2.5 ± 0.3", "unit": "nM"},
      {"measurement": "Kd", "setting": "[2]; 25° C., read-out: KD for binding to Protein S", "value": 6, "unit": "nM"},
      {"measurement": "koff", "setting": "[2]; 25° C.", "value": 0.00148, "unit": "s⁻¹"},
      {"measurement": "kon", "setting": "[2]; 25° C.", "value": 248000, "unit": "M⁻¹ s⁻¹"},
      {"measurement": "Kd", "setting": "[2]; 37° C., read-out: KD", "value": 4, "unit": "nM"},
      {"measurement": "koff", "setting": "[2]; 37° C.", "value": 0.00431, "unit": "s⁻¹"},
      {"measurement": "kon", "setting": "[2]; 37° C.", "value": "1.14e+06", "unit": "M⁻¹ s⁻¹"},
      {"measurement": "Kd", "setting": "[2]; Biacore, affinity-matured and modified peptides, read-out: KD", "value": 4, "unit": "nM"},
      {"measurement": "affinity for anti-target GAS6 relative to human Protein S (times less)", "setting": "[3]", "value": "at least 150 times"},
      {"measurement": "binding to GAS6", "setting": "[3]; 1 μM peptide, sensorgrams reviewed visually", "value": "no specific binding"}
    ]}
  ]
}
